Assay [1] deals with Escherichia coli EC-1: VOGEL, mouse virulent. In words: MIC determination (CLSI), strain EC-1. Type of assay: cell-based. The following applies: strain EC-1, unit assumed. How it is done:
(§1) The in vitro antibacterial activity of compounds described in the Examples was evaluated by minimum inhibitory concentration (MIC) testing according to Clinical and Laboratory Standards Institute (CLSI, formerly NCCLS) guidelines. See: Clinical and Laboratory Standards Institute. Methods for Dilution Antimicrobial Susceptibility Tests for Bacteria that Grow Aerobically; Approved Standard-Seventh Edition. CLSI document M7-A7 [ISBN 1-56238-587-9]. Clinical and Laboratory Standards Institute, 940 West Valley Road, Suite 1400, Wayne, Pa. 19087-1898 USA, 2006; also Clinical and Laboratory Standards Institute. Performance Standards for Antimicrobial Susceptibility Testing; Eighteenth Informational Supplement. CLSI document M100-S18 [ISBN1-56238-653-0].Clinical and Laboratory Standards Institute.
(§2) The following bacterial strains were used in these MIC determinations:
3) Escherichia coli EC-1: VOGEL, mouse virulent labeled as EC-1 in Tables 4 and 5;

Assay [2] has as its system Pseudomonas aeruginosa UI-18: Wild-type (PA-7). In words: MIC determination (CLSI), strain PA-7. Type of assay: cell-based. To be noted: strain PA-7, unit assumed. The procedure: as §1, §2
1) Pseudomonas aeruginosa UI-18: Wild-type, labeled as PA-7 in Tables 4, and 5;

[3] abbreviates: generated in the same manner as in Table 4.

For the molecule `Cc1cc2cc(-c3ccn(CCC(C)(C(=O)NO)S(C)(=O)=O)c(=O)c3)ccc2[nH]1` (centres unmarked) [Example 256, N-hydroxy-2-methyl-4-[4-(2-methyl-1H-indol-5-yl)-2-oxopyridin-1(2H)-yl]-2-(methylsulfonyl)butanamide], the EC-1 (MIC) in assay [1] worked out at 1 µg/mL. The molecule also came in with a PA-7 (MIC) in assay [2] of 4 µg/mL.

`C[C@@](CCn1ccc(-c2ccc(CO)nc2)cc1=O)(C(=O)NO)S(C)(=O)=O` [Example 418, (2R)-N-hydroxy-4-[6-(hydroxymethyl)-2′-oxo-3,4′-bipyridin-1′(2′H)-yl]-2-methyl-2-(methylsulfonyl)butanamide]: the EC-1 (MIC) in assay [1] was over 64 µg/mL. Further, the PA-7 (MIC) in assay [2] was determined as 64 µg/mL.

As to `C[C@@](CCn1ccc(-c2ccc(OCCC[C@@H](O)CO)cc2)cc1=O)(C(=O)NO)S(C)(=O)=O` [Example 365, (2R)-4-[4-(4-{[(4R)-4,5-dihydroxypentyl]oxy}phenyl)-2-oxopyridin-1(2H)-yl]-N-hydroxy-2-methyl-2-(methylsulfonyl)butanamide], the EC-1 (MIC) in assay [1] came to 4 µg/mL. Besides, the PA-7 (MIC) in assay [2] is 4 µg/mL.

For `CC(CCn1ccc(-c2ccc(Oc3cccnc3)cc2)cc1=O)(C(=O)NO)S(C)(=O)=O` (centres unmarked) [Example 287, N-hydroxy-2-methyl-2-(methylsulfonyl)-4-{2-oxo-4-[4-(pyridin-3-yloxy)phenyl]pyridin-1(2H)-yl}butanamide], in assay [1], the EC-1 (MIC) came to 0.5 µg/mL. In addition, the PA-7 (MIC) in assay [2] came out at 4 µg/mL.

As to `CC(CCn1ccc(-c2ccc(F)c(F)c2)cc1=O)(C(=O)NO)S(C)(=O)=O` (centres unmarked) [Example 134, 4-[4-(3,4-difluorophenyl)-2-oxopyridin-1(2H)-yl]-N-hydroxy-2-methyl-2-(methylsulfonyl)butanamide], the EC-1 (MIC) in assay [1] (setting [3]) worked out at 4 µg/mL. In addition, the PA-7 (MIC) in assay [2] (setting [3]) is 4 µg/mL.

The molecule `CC(CCn1ccc(-c2ccccc2C#N)cc1=O)(C(=O)NO)S(C)(=O)=O` (centres unmarked) [Example 132, 4-[4-(2-cyanophenyl)-2-oxopyridin-1(2H)-yl]-N-hydroxy-2-methyl-2-(methylsulfonyl)butanamide] returned an EC-1 (MIC) in assay [1] (setting [3]) of over 64 µg/mL. In addition, the PA-7 (MIC) in assay [2] (setting [3]) was over 64 µg/mL.

For `C[C@@](CCn1ccc(-c2ccc(OC[C@H]3CC[C@H](O)CC3)c(F)c2)cc1=O)(C(=O)NO)S(C)(=O)=O` [Example 318, (2R)-4-[4-{3-fluoro-4-[(trans-4-hydroxycyclohexyl)methoxy]phenyl}-2-oxopyridin-1(2H)-yl]-N-hydroxy-2-methyl-2-(methylsulfonyl)butanamide], the EC-1 (MIC) in assay [1] came out at 0.25 µg/mL. This molecule came in with a PA-7 (MIC) in assay [2] of 1 µg/mL.

Consider `CC(CCn1ccc(-c2ccc(OCC3CCCO3)cc2)cc1=O)(C(=O)NO)S(C)(=O)=O` (mixture of isomers) [Example 462], for which the EC-1 (MIC) in assay [1] was found to be 0.5 µg/mL. The PA-7 (MIC) in assay [2] came to 1 µg/mL.

In assay [1] (setting [3]), `COc1cc(F)ccc1-c1ccn(CCC(C)(C(=O)NO)S(C)(=O)=O)c(=O)c1` (centres unmarked) [Example 166, 4-[4-(4-fluoro-2-methoxyphenyl)-2-oxopyridin-1(2H)-yl]-N-hydroxy-2-methyl-2-(methylsulfonyl)butanamide] registered an EC-1 (MIC) of 16 µg/mL. Further, in assay [2] (setting [3]), the PA-7 (MIC) turned out to be 8 µg/mL.

Consider `Cc1nccn1-c1ccc(-c2ccn(CC[C@](C)(C(=O)NO)S(C)(=O)=O)c(=O)c2)cc1` [Example 368, (2R)-N-hydroxy-2-methyl-4-{4-[4-(2-methyl-1H-imidazol-1-yl)phenyl]-2-oxopyridin-1(2H)-yl}-2-(methylsulfonyl)butanamide], for which the EC-1 (MIC) in assay [1] is over 64 µg/mL. The same molecule yielded a PA-7 (MIC) in assay [2] of 16 µg/mL.

Consider `Cc1cc(OCCO)ccc1-c1ccn(CCC(C)(C(=O)NO)S(C)(=O)=O)c(=O)c1` (centres unmarked) [Example 237, N-hydroxy-4-{4-[4-(2-hydroxyethoxy)-2-methylphenyl]-2-oxopyridin-1(2H)-yl}-2-methyl-2-(methylsulfonyl)butanamide], for which the EC-1 (MIC) in assay [1] is over 64 µg/mL. The same molecule yielded a PA-7 (MIC) in assay [2] of 32 µg/mL.

In assay [1], `C[C@@](CCn1ccc(-c2ccc(SCC#N)cc2)cc1=O)(C(=O)NO)S(C)(=O)=O` [Example 355, (2R)-4-[4-{4-[(cyanomethyl)thio]phenyl}-2-oxopyridin-1(2H)-yl]-N-hydroxy-2-methyl-2-(methylsulfonyl)butanamide] had an EC-1 (MIC) of 4 µg/mL. In assay [2], the PA-7 (MIC) is 2 µg/mL.

`CC(CCn1ccc(-c2ccc3cc(OCCCO)ccc3c2)cc1=O)(C(=O)NO)S(C)(=O)=O` (centres unmarked) [Example 274, N-hydroxy-4-{4-[6-(3-hydroxypropoxy)-2-naphthyl]-2-oxopyridin-1(2H)-yl}-2-methyl-2-(methylsulfonyl)butanamide]: the EC-1 (MIC) in assay [1] was found to be 0.25 µg/mL. The molecule further had a PA-7 (MIC) in assay [2] of 2 µg/mL.

As for `CC(CCn1ccc(-c2ccc(OCc3cccnc3)cc2)cc1=O)(C(=O)NO)S(C)(=O)=O` (centres unmarked) [Example 269, N-hydroxy-2-methyl-2-(methylsulfonyl)-4-{2-oxo-4-[4-(pyridin-3-ylmethoxy)phenyl]pyridin-1(2H)-yl}butanamide], the EC-1 (MIC) in assay [1] was 0.5 µg/mL. Further, the PA-7 (MIC) in assay [2] stood at 2 µg/mL.

`Cc1cccc(-c2ccn(CCC(C)(C(=O)NO)S(C)(=O)=O)c(=O)c2)c1` (centres unmarked) [Example 178, N-hydroxy-2-methyl-4-[4-(3-methylphenyl)-2-oxopyridin-1(2H)-yl]-2-(methylsulfonyl)butanamide] gave an EC-1 (MIC) in assay [1] (setting [3]) of 4 µg/mL. The PA-7 (MIC) in assay [2] (setting [3]) came to 2 µg/mL.

In the case of `COc1ncccc1-c1ccn(CCC(C)(C(=O)NO)S(C)(=O)=O)c(=O)c1` (centres unmarked) [Example 182, N-hydroxy-4-(2-methoxy-2′-oxo-3,4′-bipyridin-1′(2′H)-yl)-2-methyl-2-(methylsulfonyl)butanamide], the EC-1 (MIC) in assay [1] (setting [3]) was over 64 µg/mL. In assay [2] (setting [3]), this molecule displayed a PA-7 (MIC) of 64 µg/mL.

For `Cn1c(=O)sc2cc(-c3ccn(CC[C@](C)(C(=O)NO)S(C)(=O)=O)c(=O)c3)ccc21` [Example 483], in assay [1], the EC-1 (MIC) was determined as 8 µg/mL. Further, the PA-7 (MIC) in assay [2] was determined as 8 µg/mL.

`CCCc1ccc(-c2ccn(CC[C@](C)(C(=O)NO)S(C)(=O)=O)c(=O)c2)cc1` [Example 465, (2R)-N-hydroxy-2-methyl-2-(methylsulfonyl)-4-[2-oxo-4-(4-propylphenyl)pyridin-1(2H)-yl]butanamide] showed an EC-1 (MIC) in assay [1] of 0.125 µg/mL. The molecule also registered a PA-7 (MIC) in assay [2] of 0.5 µg/mL.

Consider `C[C@@](CCn1ccc(-c2ccc(-c3ccno3)cc2)cc1=O)(C(=O)NO)S(C)(=O)=O` [Example 411, (2R)-N-hydroxy-4-[4-(4-isoxazol-5-ylphenyl)-2-oxopyridin-1(2H)-yl]-2-methyl-2-(methylsulfonyl)butanamide], for which the EC-1 (MIC) in assay [1] is 0.5 µg/mL. The same molecule gave a PA-7 (MIC) in assay [2] of 0.5 µg/mL.

The molecule `CC(=O)Nc1cccc(-c2ccn(CCC(C)(C(=O)NO)S(C)(=O)=O)c(=O)c2)c1` (centres unmarked) [Example 133, 4-[4-(3-acetamidophenyl)-2-oxopyridin-1(2H)-yl]-N-hydroxy-2-methyl-2-(methylsulfonyl)butanamide] gave an EC-1 (MIC) in assay [1] (setting [3]) of over 64 µg/mL. In assay [2] (setting [3]), this molecule yielded a PA-7 (MIC) of over 64 µg/mL.

As for `CC(CCn1ccc(-c2cccc(Cl)c2Cl)cc1=O)(C(=O)NO)S(C)(=O)=O` (centres unmarked) [Example 163, 4-[4-(2,3-dichlorophenyl)-2-oxopyridin-1(2H)-yl]-N-hydroxy-2-methyl-2-(methylsulfonyl)butanamide], the EC-1 (MIC) in assay [1] (setting [3]) worked out at 0.5 µg/mL. For the same molecule, the PA-7 (MIC) in assay [2] (setting [3]) worked out at 1 µg/mL.

Take `CC(CCn1ccc(-c2cccc(-n3cccn3)c2)cc1=O)(C(=O)NO)S(C)(=O)=O` (centres unmarked) [Example 111, N-hydroxy-2-methyl-2-(methylsulfonyl)-4-{2-oxo-4-[3-(1H-pyrazol-1-yl)phenyl]pyridin-1(2H)-yl}butanamide]: the EC-1 (MIC) in assay [1] (setting [3]) was over 64 µg/mL. Moreover, the PA-7 (MIC) in assay [2] (setting [3]) is over 64 µg/mL.

Source of the values: patent publication US8846933B2, “N-link hydroxamic acid derivatives useful as antibacterial agents” (Pfizer Inc., priority 2009, dated 2014).
